Reference: ChEMBL document CHEMBL1759836, “Microwave assisted one-pot synthesis of highly potent novel isoniazid analogues” (Bioorg Med Chem Lett, 2011)
Converted amounts (≈) assume the structure as drawn.

Key:
[1] = tested on: Mycobacterium tuberculosis; assay: Antimicrobial activity against Mycobacterium tuberculosis H37Rv by agar dilution method; format: functional
[2] = tested on: Mycobacterium tuberculosis; assay: Antimicrobial activity against multidrug-resisntat Mycobacterium tuberculosis by agar dilution method; format: functional
[3] = Cytotoxicity against african green monkey Vero cells after 72 hrs by MTT assay; format: cell-based; settings: chlorocebus sabaeus
[4] = Selectivity index, ratio of CC50 for african green monkey Vero cells to MIC for Mycobacterium tuberculosis H37Rv; format: functional

Q: With `CC1(C)CC(=O)C2=C(C1)N(NC(=O)c1ccncc1)C1=C(C(=O)CC(C)(C)C1)C2c1ccccc1` as the compound, how does the MIC [1] read?
A: The MIC was 6.66 µM (≈ 3.13 µg/mL).

Q: With `Cc1ccccc1C1C2=C(CC(C)(C)CC2=O)N(NC(=O)c2ccncc2)C2=C1C(=O)CC(C)(C)C2` as the compound, how does the MIC [1] read?
A: Its MIC is 3.22 µM (≈ 1.56 µg/mL).

Q: For `Cc1cccc(C2C3=C(CC(C)(C)CC3=O)N(NC(=O)c3ccncc3)C3=C2C(=O)CC(C)(C)C3)c1`, which MIC [1] is on record?
A: Its MIC is 6.44 µM (≈ 3.11 µg/mL).

Q: Which MIC [1] does the source give for `Cc1ccc(C2C3=C(CC(C)(C)CC3=O)N(NC(=O)c3ccncc3)C3=C2C(=O)CC(C)(C)C3)cc1` here?
A: Its MIC is 6.44 µM (≈ 3.11 µg/mL).

Q: For `CC1(C)CC(=O)C2=C(C1)N(NC(=O)c1ccncc1)C1=C(C(=O)CC(C)(C)C1)C2c1ccccc1O`, which MIC [1] is on record?
A: Its MIC is > 12.9 µM.

Q: For `CC1(C)CC(=O)C2=C(C1)N(NC(=O)c1ccncc1)C1=C(C(=O)CC(C)(C)C1)C2c1cccc(O)c1`, which MIC [1] is on record?
A: Its MIC is > 12.9 µM.

Q: With `CC1(C)CC(=O)C2=C(C1)N(NC(=O)c1ccncc1)C1=C(C(=O)CC(C)(C)C1)C2c1ccc(O)cc1` as the compound, how does the MIC [1] read?
A: The MIC was 12.9 µM (≈ 6.25 µg/mL).

Q: With `COc1ccccc1C1C2=C(CC(C)(C)CC2=O)N(NC(=O)c2ccncc2)C2=C1C(=O)CC(C)(C)C2` as the compound, how does the MIC [1] read?
A: Its MIC is 12.5 µM (≈ 6.25 µg/mL).

Q: Which MIC [1] does the source give for `COc1ccc(C2C3=C(CC(C)(C)CC3=O)N(NC(=O)c3ccncc3)C3=C2C(=O)CC(C)(C)C3)cc1` here?
A: The MIC was 12.5 µM (≈ 6.25 µg/mL).

Q: Which MIC [1] does the source give for `CN(C)c1ccc(C2C3=C(CC(C)(C)CC3=O)N(NC(=O)c3ccncc3)C3=C2C(=O)CC(C)(C)C3)cc1` here?
A: Its MIC is 6.1 µM (≈ 3.13 µg/mL).

Q: Which MIC [1] does the source give for `CC(C)c1ccc(C2C3=C(CC(C)(C)CC3=O)N(NC(=O)c3ccncc3)C3=C2C(=O)CC(C)(C)C3)cc1` here?
A: Its MIC is 1.52 µM (≈ 0.778 µg/mL).

Q: With `CC1(C)CC(=O)C2=C(C1)N(NC(=O)c1ccncc1)C1=C(C(=O)CC(C)(C)C1)C2c1ccccc1OCc1ccccc1` as the compound, how does the MIC [2] read?
A: Its MIC is 0.69 µM (≈ 0.397 µg/mL).

Q: And the MIC [1]?
A: Its MIC is < 0.17 µM.

Q: What about the CC50 at 72 h [3] of the same compound?
A: Its CC50 at 72 h is > 109 µM.

Q: For `CC1(C)CC(=O)C2=C(C1)N(NC(=O)c1ccncc1)C1=C(C(=O)CC(C)(C)C1)C2c1cccc(OCc2ccccc2)c1`, which MIC [2] is on record?
A: The MIC was 1.35 µM (≈ 0.777 µg/mL).

Q: What about the MIC [1] of the same compound?
A: Its MIC is 0.17 µM (≈ 0.0979 µg/mL).

Q: And the CC50 at 72 h [3]?
A: Its CC50 at 72 h is > 109 µM.

Q: With `CC1(C)CC(=O)C2=C(C1)N(NC(=O)c1ccncc1)C1=C(C(=O)CC(C)(C)C1)C2c1ccc(OCc2ccccc2)cc1` as the compound, how does the MIC [2] read?
A: The MIC was 0.69 µM (≈ 0.397 µg/mL).

Q: What about the MIC [1] of the same compound?
A: Its MIC is 0.17 µM (≈ 0.0979 µg/mL).

Q: And the CC50 at 72 h [3]?
A: The CC50 at 72 h was > 109 µM.

Q: With `COc1cc(C2C3=C(CC(C)(C)CC3=O)N(NC(=O)c3ccncc3)C3=C2C(=O)CC(C)(C)C3)ccc1O` as the compound, how does the MIC [1] read?
A: The MIC was 3.02 µM (≈ 1.56 µg/mL).

Q: Which MIC [1] does the source give for `COc1ccc(C2C3=C(CC(C)(C)CC3=O)N(NC(=O)c3ccncc3)C3=C2C(=O)CC(C)(C)C3)c(OC)c1OC` here?
A: Its MIC is 11.2 µM (≈ 6.25 µg/mL).

Q: For `CC1(C)CC(=O)C2=C(C1)N(NC(=O)c1ccncc1)C1=C(C(=O)CC(C)(C)C1)C2c1ccccc1C(F)(F)F`, which MIC [2] is on record?
A: Its MIC is 1.45 µM (≈ 0.779 µg/mL).

Q: What about the MIC [1] of the same compound?
A: The MIC was 0.36 µM (≈ 0.194 µg/mL).

Q: And the CC50 at 72 h [3]?
A: Its CC50 at 72 h is > 116 µM.

Q: Which MIC [2] does the source give for `CC1(C)CC(=O)C2=C(C1)N(NC(=O)c1ccncc1)C1=C(C(=O)CC(C)(C)C1)C2c1cccc(C(F)(F)F)c1` here?
A: Its MIC is 1.45 µM (≈ 0.779 µg/mL).

Q: And the MIC [1]?
A: The MIC was 0.18 µM (≈ 0.0968 µg/mL).

Q: What about the “Selectivity Index” value [4] of the same compound?
A: Its value is >645.

Q: And the CC50 at 72 h [3]?
A: The CC50 at 72 h was > 116 µM.

Q: Which MIC [2] does the source give for `CC1(C)CC(=O)C2=C(C1)N(NC(=O)c1ccncc1)C1=C(C(=O)CC(C)(C)C1)C2c1ccc(C(F)(F)F)cc1` here?
A: The MIC was 0.74 µM (≈ 0.398 µg/mL).

Q: What about the MIC [1] of the same compound?
A: The MIC was 0.36 µM (≈ 0.194 µg/mL).

Q: And the CC50 at 72 h [3]?
A: The CC50 at 72 h was > 116 µM.

Q: Which MIC [2] does the source give for `CC1(C)CC(=O)C2=C(C1)N(NC(=O)c1ccncc1)C1=C(C(=O)CC(C)(C)C1)C2c1ccc(Cl)cc1` here?
A: The MIC was 1.54 µM (≈ 0.776 µg/mL).

Q: And the MIC [1]?
A: Its MIC is 0.79 µM (≈ 0.398 µg/mL).

Q: What about the CC50 at 72 h [3] of the same compound?
A: Its CC50 at 72 h is > 124 µM.

Q: Which results are given for `CC1(C)CC(=O)C2=C(C1)N(NC(=O)c1ccncc1)C1=C(C(=O)CC(C)(C)C1)C2c1ccccc1Br`?
A: MIC [2]: 2.84 µM (≈ 1.56 µg/mL); MIC [1]: 0.18 µM (≈ 0.0987 µg/mL); CC50 at 72 h [3]: > 114 µM

Q: With `CC1(C)CC(=O)C2=C(C1)N(NC(=O)c1ccncc1)C1=C(C(=O)CC(C)(C)C1)C2c1cccc(Br)c1` as the compound, how does the MIC [2] read?
A: The MIC was 2.84 µM (≈ 1.56 µg/mL).

Q: And the MIC [1]?
A: Its MIC is 0.73 µM (≈ 0.4 µg/mL).

Q: What about the CC50 at 72 h [3] of the same compound?
A: Its CC50 at 72 h is < 114 µM.

Q: What does the source list for `CC1(C)CC(=O)C2=C(C1)N(NC(=O)c1ccncc1)C1=C(C(=O)CC(C)(C)C1)C2c1ccc(Br)cc1`?
A: MIC [2]: 2.84 µM (≈ 1.56 µg/mL); MIC [1]: 0.73 µM (≈ 0.4 µg/mL); CC50 at 72 h [3]: < 114 µM

Q: Which results are given for `CC1(C)CC(=O)C2=C(C1)N(NC(=O)c1ccncc1)C1=C(C(=O)CC(C)(C)C1)C2c1ccccc1F`?
A: MIC [2]: 1.59 µM (≈ 0.775 µg/mL); MIC [1]: 0.41 µM (≈ 0.2 µg/mL); CC50 at 72 h [3]: > 128 µM

Q: Which MIC [2] does the source give for `CC1(C)CC(=O)C2=C(C1)N(NC(=O)c1ccncc1)C1=C(C(=O)CC(C)(C)C1)C2c1cccc(F)c1` here?
A: Its MIC is 0.82 µM (≈ 0.4 µg/mL).

Q: What about the MIC [1] of the same compound?
A: The MIC was 0.41 µM (≈ 0.2 µg/mL).

Q: What about the CC50 at 72 h [3] of the same compound?
A: The CC50 at 72 h was > 128 µM.

Q: For `CC1(C)CC(=O)C2=C(C1)N(NC(=O)c1ccncc1)C1=C(C(=O)CC(C)(C)C1)C2c1ccc(F)cc1`, which MIC [2] is on record?
A: The MIC was 0.2 µM (≈ 0.0975 µg/mL).

Q: And the MIC [1]?
A: The MIC was 0.2 µM (≈ 0.0975 µg/mL).

Q: What about the CC50 at 72 h [3] of the same compound?
A: The CC50 at 72 h was > 128 µM.

Q: What does the source list for `CC1(C)CC(=O)C2=C(C1)N(NC(=O)c1ccncc1)C1=C(C(=O)CC(C)(C)C1)C2c1ccccc1[N+](=O)[O-]`?
A: MIC [2]: 1.51 µM (≈ 0.777 µg/mL); MIC [1]: 0.19 µM (≈ 0.0978 µg/mL); CC50 at 72 h [3]: < 121 µM

Q: For `CC1(C)CC(=O)C2=C(C1)N(NC(=O)c1ccncc1)C1=C(C(=O)CC(C)(C)C1)C2c1cccc([N+](=O)[O-])c1`, which MIC [2] is on record?
A: The MIC was 3.03 µM (≈ 1.56 µg/mL).

Q: And the MIC [1]?
A: Its MIC is 0.77 µM (≈ 0.396 µg/mL).

Q: What about the CC50 at 72 h [3] of the same compound?
A: The CC50 at 72 h was < 121 µM.

Q: For `CC1(C)CC(=O)C2=C(C1)N(NC(=O)c1ccncc1)C1=C(C(=O)CC(C)(C)C1)C2c1ccc([N+](=O)[O-])cc1`, which MIC [2] is on record?
A: The MIC was 3.03 µM (≈ 1.56 µg/mL).

Q: What about the MIC [1] of the same compound?
A: Its MIC is 0.77 µM (≈ 0.396 µg/mL).

Q: What about the CC50 at 72 h [3] of the same compound?
A: The CC50 at 72 h was < 121 µM.

Q: Which results are given for `NNC(=O)c1ccncc1` [ISONIAZID]?
A: MIC [2]: 45.6 µM (≈ 6.25 µg/mL); MIC [1]: 0.73 µM (≈ 0.1 µg/mL); CC50 at 72 h [3]: > 456 µM
